Entries after “also recorded” stand apart in the source; their conditions may differ. Like-named read-outs stand apart in the source and are kept apart here.
Assays:
Erwinia amylovora 273 = assay: In vitro plate assay of flash fractions; format: cell-based; conditions: E. amylovora 273 on 50% LB plate, 2 μL DMSO solution, one day
Method: The generated fractions were applied for the subsequent plate assays. One mL of each fraction was picked up into a 1.5 mL test tube and vacuum dried by an Eppendorf vacuum concentrator. The dried sample was dissolved in 50 μL DMSO, of which 2 μL was used in the plate assay. Briefly, Erwinia amylovora 273 was streaked onto LB plate to grow at 28° C. incubator and single colony obtained after 24 h was inoculated into 5 mL LB media to allow an overnight growth at 28° C. shaker at 200 rpm. The bacteria were diluted 1:100 in sterile water, of which 225 μL was plated onto 50% LB plate (Tryptone, 5.0 g/L; Yeast extract, 2.5 g/L; NaCl, 5.0 g/L, Agar, 15 g/L). After dried in the biosafety cabinet for 10 mins, the DMSO solution of each fraction was then distributed to its pre-labeled section of the petri dish and allowed to dry for another 10 min. Along with the assay, DMSO and Kasugamycin were used as negative and positive controls, respectively. The plates were then incubated at 28° C. incubator and the inhibitory zone was checked one day later.
The generated fractions were applied for the subsequent plate assays. One mL of each fractions was picked up into a 1.5 mL test tube and vacuum dried by an Eppendorf vacuum concentrator. The dried sample was dissolved in 50 μL DMSO, of which 2 μL was used in the plate assay. […]

E. amylovora = assay: Plate diffusion assay in LB plates; format: cell-based, Erwinia amylovora
From the text: Two assays were used for the antimicrobial test of 0617-T307 cell broth and metabolites. One is plate diffusion assay and the other one is microplate assay. LB plate was used for the plate diffusion assay of the antimicrobial activity of RejuAgro A containing fractions and cell broths against E. amylovora (Table 3).

[1] = system: X. arboricola pv. Juglandis Xaj219; assay: microbe, parasite or virus in culture; format: cell-based, Xanthomonas arboricola pv. Juglandis; conditions: Xanthomonas arboricola, read-out: Diameter of the zone of inhibition
R. solanacearum Pss = assay: microbe, parasite or virus in culture; format: cell-based; conditions: Ralstonia solanacearum, read-out: Diameter of the zone of inhibition
R. solanacearum K60 = assay: microbe, parasite or virus in culture; format: cell-based; conditions: Ralstonia solanacearum, K60, read-out: Diameter of the zone of inhibition
Solubility in solvents = format: physicochemical
Method: Preparative HPLC (Prep-HPLC) purification of the fraction 3840 and 5054 lead to the discovery of 15 mg yellow colored compound RejuAgro A (Rt17.5) and 103.3 mg dark-green colored compound RejuAgro B, respectively. […] The structures of the two compounds have been investigated by High resolution mass spectrometry (HR-MS), infrared (IR), Ultraviolet (UV), 1D and 2D Nuclear magnetic resonance (NMR) as well as X-ray crystal structure analysis.

[2] = system: X. arboricola pv. Juglandis Xaj417; assay: microbe, parasite or virus in culture; format: cell-based, Xanthomonas arboricola pv. Juglandis; conditions: Xanthomonas arboricola, read-out: Diameter of the zone of inhibition
[3] = system: Xanthomonas axonopodis pv. citri-Miami XC2002-00010; assay: Agar plate spot assay (inhibitory zone); format: cell-based; conditions: Xac-Miami XC2002-00010, NA
[4] = system: Ralstonia solanacearum K60; format: cell-based; conditions: LB
[5] = system: Xanthomonas axonopodis pv. citri N40-SO5; assay: Agar plate spot assay (inhibitory zone); format: cell-based; conditions: Xac N40-SO5, NA
[6] = system: Clavibacter michiganensis subsp. michiganensis Cmm 0317; assay: Agar plate spot assay (inhibitory zone); format: cell-based; conditions: LB, 2 to 5 days
Erwinia amylovora 1189 = assay: Agar plate spot assay (inhibitory zone); format: cell-based; conditions: LB
From the text: (§1) The HPLC isolation and purification of the ethyl acetate extracts of acidified cell broth of Pseudomonas sp. 0617-T307 identified two antimicrobial compounds (Rt22.9 and Rt25.0) from flash fraction T5058 and one antimicrobial compound (Rt18.9) from flash fraction T7882. Two μL of DMSO, Rt18.9, Rt22.9 or Rt25.0 were spotted on agar plates respectively grown with different bacterial strains and the inhibitory zone was further examined (Table 8).

[7] = system: Pectobacterium carotovorum subsp. brasiliensis 944; assay: Agar plate spot assay (inhibitory zone); format: cell-based; conditions: P. carotovorum subsp. brasiliensis 944, LB
From the text: as §1

[8] = system: Pectobacterium atrosepticum 942; assay: Agar plate spot assay (inhibitory zone); format: cell-based; conditions: LB
From the text: as §1

[9] = system: Pseudomonas syringae pv. tomato PT30; assay: Agar plate spot assay (inhibitory zone); format: cell-based; conditions: P. syringae pv. tomato PT30, LB
From the text: as §1

[10] = system: Pseudomonas savastanoi pv. savastanoi 01-26; assay: Agar plate spot assay (inhibitory zone); format: cell-based; conditions: P. savastanoi pv. savastanoi 01-26, LB
From the text: as §1

[11] = system: Pectobacterium parmentieri UPP163 936; assay: Agar plate spot assay (inhibitory zone); format: cell-based; conditions: LB
From the text: as §1

[12] = system: Xanthomonas arboricola pv. Juglandis 219; assay: Agar plate spot assay (inhibitory zone); format: cell-based; conditions: X. arboricola pv. Juglandis 219, NA
From the text: as §1

[13] = system: Pseudomonas syringae pv. lachrymans 1188-1; assay: Agar plate spot assay (inhibitory zone); format: cell-based; conditions: P. syringae pv. lachrymans 1188-1, LB
From the text: as §1

[14] = system: Pseudomonas syringae pv syringae 7046; assay: Agar plate spot assay (inhibitory zone); format: cell-based; conditions: P. syringae pv syringae 7046, LB
From the text: as §1

[15] = system: Xanthomonas arboricola pv. Juglandis 417; assay: Agar plate spot assay (inhibitory zone); format: cell-based; conditions: X. arboricola pv. Juglandis 417, NA
From the text: as §1

[16] = system: C. michiganensis subsp. Michiganensis Cmm382; assay: Agar plate diffusion assay; format: cell-based, Clavibacter michiganensis subsp. michiganensis; conditions: Clavibacter michiganensis, read-out: Diameter of the zone of inhibition
[17] = system: C. michiganensis subsp. Michiganensis Cmm0690; assay: Agar plate diffusion assay; format: cell-based, Clavibacter michiganensis subsp. michiganensis; conditions: Clavibacter michiganensis, read-out: Diameter of the zone of inhibition
[18] = system: C. michiganensis subsp. Michiganensis Cmm0317; assay: Agar plate diffusion assay; format: cell-based, Clavibacter michiganensis subsp. michiganensis; conditions: Clavibacter michiganensis, read-out: Diameter of the zone of inhibition
Venturia inaequalis = assay: Antifungal assay on amended PDA plates; format: cell-based; conditions: 200-1000 μg/mL in PDA plate; day 14 (figure)
Method: The fungus Venturia inaqualis that causes apple scab was maintained on PDA agar in the dark at room temperature (˜24° C.). A mixture of conidia and mycelia suspension (in 0.01 M PBS) was harvested from PDA (Potato dextrose agar). Ten μL the conidia and mycelia suspension were dropped onto biocontrol bacteria, RejuAgro A, or RejuAgro A amended plates. The control was PDA plates without the addition of the biocontrol bacteria or RejuAgro A or B. […]

Question: For `C[C@H]1O[C@H](O[C@H]2[C@H](O)[C@@H](O)[C@@H](O)[C@H](O)[C@@H]2O)[C@@H](N)C[C@@H]1NC(=N)C(=O)O` [Kasugamycin, reference compound], which “inhibitory zone / zone of clearance” value (Erwinia amylovora 273) is on record?
Answer: Its value is “did show a zone of inhibition”.

Question: What about the “Diameter of the Inhibitory zone” value (E. amylovora; concentration not given) of the same molecule?
Answer: Its value is 1.3 cm.

Question: Which zone of inhibition at 2000 µg/mL [1] does the source give for `CC1=C(C2=C(C)C(=O)C(=O)NC2=O)C(=O)NC(=O)C1=O` [RejuAgro B] here?
Answer: The zone of inhibition at 2000 µg/mL was 0 mm.

Question: And the zone of inhibition at 2000 µg/mL (R. solanacearum Pss)?
Answer: Its zone of inhibition at 2000 µg/mL is 4 mm.

Question: What about the zone of inhibition at 2000 µg/mL (R. solanacearum K60) of the same molecule?
Answer: The zone of inhibition at 2000 µg/mL was 4 mm.

Question: What about the zone of inhibition at 2000 µg/mL (E. amylovora; Erwinia amylovora, 2 mg/mL, read-out: Diameter of the Inhibitory zone) of the same molecule?
Answer: The zone of inhibition at 2000 µg/mL was 0 mm.

Question: And the “solubility in dimethyl sulfoxide (DMSO)” value (Solubility in solvents; DMSO)?
Answer: Its value is “can be dissolved very well”.

Question: What about the “solubility in methanol and chloroform” value (Solubility in solvents; methanol, chloroform) of the same molecule?
Answer: The value was “does not dissolve well”.

Question: What about the zone of inhibition at 2000 µg/mL [2] of the same molecule?
Answer: Its zone of inhibition at 2000 µg/mL is 0 mm.

Question: What does the source list for `CC(C)CC(=O)NC(Cc1c[nH]c2ccccc12)C(=O)O` (centres unmarked) [Rt22.9]?
Answer: Inhibitory zone (Yes/No) ([3]; 10 mg/mL): No; Inhibitory zone (Yes/No) ([4]; 10 mg/mL): Yes; Inhibitory zone (Yes/No) ([5]; 10 mg/mL): No; Inhibitory zone (Yes/No) ([6]; 2 μL of 10 mg/mL spotted): Yes; Inhibitory zone (Yes/No) (Erwinia amylovora 1189; 10 mg/mL): No; Inhibitory zone (Yes/No) ([7]; 10 mg/mL): No; Inhibitory zone (Yes/No) ([8]; 10 mg/mL): No; Inhibitory zone (Yes/No) ([9]; 10 mg/mL): Yes; Inhibitory zone (Yes/No) ([10]; 10 mg/mL): Yes; Inhibitory zone (Yes/No) ([11]; 10 mg/mL): No; Inhibitory zone (Yes/No) ([12]; 10 mg/mL): No; Inhibitory zone (Yes/No) ([13]; 10 mg/mL): Yes; Inhibitory zone (Yes/No) ([14]; 10 mg/mL): Yes; Inhibitory zone (Yes/No) ([15]; 10 mg/mL): No

Question: What does the source list for `CCCCCC(=O)NC(Cc1c[nH]c2ccccc12)C(=O)O` (centres unmarked) [Rt25.0]?
Answer: Inhibitory zone (Yes/No) ([3]; 5 mg/mL): Yes; Inhibitory zone (Yes/No) ([4]; 5 mg/mL): Yes; Inhibitory zone (Yes/No) ([5]; 5 mg/mL): Yes; Inhibitory zone (Yes/No) ([6]; 2 μL of 5 mg/mL spotted): Yes; Inhibitory zone (Yes/No) (Erwinia amylovora 1189; 5 mg/mL): No; Inhibitory zone (Yes/No) ([7]; 5 mg/mL): Yes; Inhibitory zone (Yes/No) ([8]; 5 mg/mL): No; Inhibitory zone (Yes/No) ([9]; 5 mg/mL): Yes; Inhibitory zone (Yes/No) ([10]; 5 mg/mL): Yes; Inhibitory zone (Yes/No) ([11]; 5 mg/mL): No; Inhibitory zone (Yes/No) ([12]; 5 mg/mL): Yes; Inhibitory zone (Yes/No) ([13]; 5 mg/mL): Yes; Inhibitory zone (Yes/No) ([14]; 5 mg/mL): Yes; Inhibitory zone (Yes/No) ([15]; 5 mg/mL): No

Question: With `CN[C@H](CC(C)C)C(=O)N[C@H]1C(=O)N[C@@H](CC(N)=O)C(=O)N[C@H]2C(=O)N[C@H]3C(=O)N[C@H](C(=O)N[C@H](C(=O)O)c4cc(O)cc(O)c4-c4cc3ccc4O)[C@H](O)c3ccc(c(Cl)c3)Oc3cc2cc(c3O[C@@H]2O[C@H](CO)[C@@H](O)[C@H](O)[C@H]2O[C@H]2C[C@](C)(N)[C@H](O)[C@H](C)O2)Oc2ccc(cc2Cl)[C@H]1O` [Vancomycin] as the molecule, how does the zone of inhibition at 5000 µg/mL [16] read?
Answer: Its zone of inhibition at 5000 µg/mL is 30 mm.

Question: What about the zone of inhibition at 5000 µg/mL [17] of the same molecule?
Answer: Its zone of inhibition at 5000 µg/mL is 30 mm.

Question: And the zone of inhibition at 5000 µg/mL [18]?
Answer: Its zone of inhibition at 5000 µg/mL is 30 mm.

Question: For `O=S(=O)([O-])[O-].[Cu+2]` [copper sulfate, reference compound], which “growth of V. inaequalis on PDA plates” value (Venturia inaequalis) is on record?
Answer: The value was “no inhibition; also recorded: can grow”.

— patent US12089595B2, “Pseudomonas strains and their metabolites to control plant diseases” (T3 Bioscience, Inc., priority 2020, dated 2024)
